Measurements published in paper PMC5693604 (Cell chemical biology, 2017).

Legend:
Format in all cases: cell-based
[1] = biological target: T1, CHEK2 (Homo sapiens, UniProt O96017); experiment: competitive gel-based ABPP with probe […] in HEK293T cells
[2] = biological target: T2, NT5DC1 (5'-Nucleotidase-Domain Containing 1) (Homo sapiens, UniProt Q5TFE4); experiment: as above
T2 sequence (Q5TFE4 1-455): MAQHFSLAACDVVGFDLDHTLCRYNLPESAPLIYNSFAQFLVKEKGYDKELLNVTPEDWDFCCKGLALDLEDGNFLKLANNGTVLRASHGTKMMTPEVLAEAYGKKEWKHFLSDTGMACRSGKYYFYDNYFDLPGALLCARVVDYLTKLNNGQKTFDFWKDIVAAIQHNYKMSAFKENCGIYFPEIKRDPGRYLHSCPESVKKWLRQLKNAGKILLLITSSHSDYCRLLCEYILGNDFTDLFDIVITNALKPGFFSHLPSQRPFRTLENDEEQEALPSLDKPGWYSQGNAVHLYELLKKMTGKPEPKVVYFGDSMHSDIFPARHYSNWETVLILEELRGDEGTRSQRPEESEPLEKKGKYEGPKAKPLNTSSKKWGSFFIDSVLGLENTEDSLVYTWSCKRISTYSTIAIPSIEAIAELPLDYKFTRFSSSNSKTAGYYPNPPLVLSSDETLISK

[3] = biological target: T1, CHEK2; experiment: FRET Z'-LYTE kinase assay

T1 sequence (O96017 whole entry): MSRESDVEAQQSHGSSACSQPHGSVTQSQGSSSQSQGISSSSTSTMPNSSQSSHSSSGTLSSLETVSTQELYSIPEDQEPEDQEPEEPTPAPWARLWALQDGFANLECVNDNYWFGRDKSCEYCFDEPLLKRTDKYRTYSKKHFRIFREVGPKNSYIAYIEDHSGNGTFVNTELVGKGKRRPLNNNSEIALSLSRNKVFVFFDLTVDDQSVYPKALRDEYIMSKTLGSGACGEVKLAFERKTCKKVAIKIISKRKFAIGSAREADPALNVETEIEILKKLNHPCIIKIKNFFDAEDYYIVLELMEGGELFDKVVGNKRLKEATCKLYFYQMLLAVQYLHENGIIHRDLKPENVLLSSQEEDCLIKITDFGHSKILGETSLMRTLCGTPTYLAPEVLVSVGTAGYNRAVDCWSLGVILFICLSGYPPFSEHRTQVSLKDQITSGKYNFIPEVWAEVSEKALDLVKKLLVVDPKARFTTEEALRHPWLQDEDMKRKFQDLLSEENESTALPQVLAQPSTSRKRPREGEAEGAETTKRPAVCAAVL

SMILES	IC50 [1]	IC50 [2]	IC50 [3]
C=CC(=O)N[C@@H]1CN(c2nc(Nc3cn(C)nc3OC)c3ncn(C)c3n2)C[C@H]1F [compound 2, N-((3R,4R)-4-Fluoro-1-(6-((3-methoxy-1-methyl-1H-pyrazol-4-yl)amino)-9-methyl-9H-purin-2-yl)pyrrolidine-3-yl)acrylamide]	~4 µM		
C=CC(=O)Nc1cccc(Nc2nc(Nc3ccc(N4CCN(C(C)=O)CC4)cc3OC)ncc2C(F)(F)F)c1 [compound 3, rociletinib]		~360 nM	350 nM
